{"source": "patent US6491729B1", "key": {"[1]": {"experiment": "physical properties of the solvent", "details": "Table 1"}, "[2]": {"experiment": "degree of cleaning fabrics: Lab differences, whiteness and yellowness index of soil test cloth", "procedure": "In the tests of the degree of cleaning fabrics in Examples 1 to 9, four kinds of standard soil test cloths are taken, the types of the cloth are respectively polyester, cotton, wool, polyester/cotton. The conditions of the tests of degree of cleaning fabrics are similar to those of the above dry-cleaning tests. After the soil test cloths have been dry cleaned, the reflectance, the whiteness index and the yellowness index thereof are measured by means of a color matching system to identify the degree of cleaning fabrics of the dry-cleaning solvents.\nAfter the soil test cloths of polyester/cotton, wool, cotton and polyester are respectively dry-cleaned with the dry-cleaning solvents, the degrees of cleaning the soil test cloths of the dry-cleaning solvents is measured. The dry-cleaning procedure is carried out under the conditions that temperature is 25±2° C., liquid ratio is 1:40 and dry cleaning time is 30 minutes in a shaking manner and then the soil test cloths which have been dry-cleaned are dried under the temperature of 60±2° C.\nColor differences can be analyzed according to Munsell Color Solid Theory and a bright and a chroma of a hue can be decided by means of a solid rectangular coordinate.\nAccording to an opponent-color coordinate recommended by the CIE (Commission International de I'Eclairage) Society in 1976, wherein a redness-greenness coordinate is set to be the “a” coordinate with redness as a positive value and greenness as a negative together with a yellowness-blueness coordinate forms the “b” coordinate wherein yellowness indicates a positive value and blueness indicates a negative value, the two sets of coordinates form a two dimensional coordinate further with a third coordinate which indicates the bright to form the opponent-color coordinate designed by the CIE Lab, a bright value “L” in the third coordinate, a chroma value “a” in the redness-greenness coordinate and a chroma value “b” in the yellowness-blueness coordinate are related to red, blue, green tristimulus values as shown in the following:\nΔE=((ΔL)^2+(Δa)^2+(Δb)^2)^½\nIn FIG. 1, Δc indicates the chroma difference between a chroma value of a specimen sample and a chroma value of a standard sample, and Δh indicates the hue angle difference. By means of the analysis of chroma difference and hue angle difference, the two values Δc and Δh, can be easily obtained."}, "[3]": {"details": "soil test cloth of cotton, dry cleaned five times"}, "[4]": {"details": "soil test cloth of cotton, dry cleaned one time"}, "[5]": {"details": "soil test cloth of cotton, dry cleaned two times"}, "[6]": {"details": "soil test cloth of polyester/cotton, dry cleaned five times"}, "[7]": {"details": "soil test cloth of polyester/cotton, dry cleaned one time"}, "[8]": {"details": "soil test cloth of polyester/cotton, dry cleaned two times"}, "[9]": {"details": "soil test cloth of polyester, dry cleaned five times"}, "[10]": {"details": "soil test cloth of polyester, dry cleaned one time"}, "[11]": {"details": "soil test cloth of polyester, dry cleaned two times"}, "[12]": {"details": "soil test cloth of wool, dry cleaned five times"}, "[13]": {"details": "soil test cloth of wool, dry cleaned one time"}, "[14]": {"details": "soil test cloth of wool, dry cleaned two times"}}, "data": [{"smiles": "ClC(Cl)=C(Cl)Cl", "note": "[perchloroethylene]", "values": [{"measurement": "Boiling point", "setting": "[1]", "result": 121, "unit": "°C"}, {"measurement": "Solubility", "setting": "[1]", "result": "Insoluble in water,"}, {"measurement": "Specific gravity", "setting": "[1]", "result": 1.625}, {"measurement": "Dangerousness", "setting": "dangerousness (Table 1)", "result": "medium toxicity"}, {"measurement": "ΔE", "setting": "[2]; [3]", "result": 2.88}, {"measurement": "ΔL", "setting": "[2]; [3]", "result": 2.8}, {"measurement": "Δa", "setting": "[2]; [3]", "result": "−0.02"}, {"measurement": "Δb", "setting": "[2]; [3]", "result": "−0.68"}, {"measurement": "Δc", "setting": "[2]; [3]", "result": "−0.66"}, {"measurement": "Δh", "setting": "[2]; [3]", "result": 0.16}, {"measurement": "yellowness index", "setting": "[2]; soil test cloth of cotton, dry cleaned five times, before dry cleaned 3.85", "result": 2.18}, {"measurement": "whiteness index", "setting": "[2]; soil test cloth of cotton, dry cleaned five times, before dry cleaned 39.47", "result": 45.97}, {"measurement": "ΔE", "setting": "[2]; [4]", "result": 4.27}, {"measurement": "ΔL", "setting": "[2]; [4]", "result": 4.22}, {"measurement": "Δa", "setting": "[2]; [4]", "result": "−0.02"}, {"measurement": "Δb", "setting": "[2]; [4]", "result": "−0.61"}, {"measurement": "Δc", "setting": "[2]; [4]", "result": "−0.6"}, {"measurement": "Δh", "setting": "[2]; [4]", "result": 0.14}, {"measurement": "yellowness index", "setting": "[2]; soil test cloth of cotton, dry cleaned one time, before dry cleaned 3.85", "result": 2.31}, {"measurement": "whiteness index", "setting": "[2]; soil test cloth of cotton, dry cleaned one time, before dry cleaned 39.47", "result": 47.96}, {"measurement": "ΔE", "setting": "[2]; [5]", "result": 4.09}, {"measurement": "ΔL", "setting": "[2]; [5]", "result": 4.04}, {"measurement": "Δa", "setting": "[2]; [5]", "result": "−0.04"}, {"measurement": "Δb", "setting": "[2]; [5]", "result": "−0.64"}, {"measurement": "Δc", "setting": "[2]; [5]", "result": "−0.62"}, {"measurement": "Δh", "setting": "[2]; [5]", "result": 0.18}, {"measurement": "yellowness index", "setting": "[2]; soil test cloth of cotton, dry cleaned two times, before dry cleaned 3.85", "result": 2.23}, {"measurement": "whiteness index", "setting": "[2]; soil test cloth of cotton, dry cleaned two times, before dry cleaned 39.47", "result": 47.78}, {"measurement": "ΔE", "setting": "[2]; [6]", "result": 2.83}, {"measurement": "ΔL", "setting": "[2]; [6]", "result": 2.8}, {"measurement": "Δa", "setting": "[2]; [6]", "result": "−0.06"}, {"measurement": "Δb", "setting": "[2]; [6]", "result": "−0.4"}, {"measurement": "Δc", "setting": "[2]; [6]", "result": "−0.39"}, {"measurement": "Δh", "setting": "[2]; [6]", "result": 0.13}, {"measurement": "yellowness index", "setting": "[2]; soil test cloth of polyester/cotton, dry cleaned five times, before dry cleaned 3.41", "result": 2.33}, {"measurement": "whiteness index", "setting": "[2]; soil test cloth of polyester/cotton, dry cleaned five times, before dry cleaned 37.82", "result": 43.16}, {"measurement": "ΔE", "setting": "[2]; [7]", "result": 3.29}, {"measurement": "ΔL", "setting": "[2]; [7]", "result": 3.26}, {"measurement": "Δa", "setting": "[2]; [7]", "result": "−0.04"}, {"measurement": "Δb", "setting": "[2]; [7]", "result": "−0.41"}, {"measurement": "Δc", "setting": "[2]; [7]", "result": "−0.4"}, {"measurement": "Δh", "setting": "[2]; [7]", "result": 0.11}, {"measurement": "yellowness index", "setting": "[2]; soil test cloth of polyester/cotton, dry cleaned one time, before dry cleaned 3.41", "result": 2.32}, {"measurement": "whiteness index", "setting": "[2]; soil test cloth of polyester/cotton, dry cleaned one time, before dry cleaned 37.82", "result": 43.87}, {"measurement": "ΔE", "setting": "[2]; [8]", "result": 3.96}, {"measurement": "ΔL", "setting": "[2]; [8]", "result": 3.94}, {"measurement": "Δa", "setting": "[2]; [8]", "result": "−0.07"}, {"measurement": "Δb", "setting": "[2]; [8]", "result": "−0.43"}, {"measurement": "Δc", "setting": "[2]; [8]", "result": "−0.41"}, {"measurement": "Δh", "setting": "[2]; [8]", "result": 0.15}, {"measurement": "yellowness index", "setting": "[2]; soil test cloth of polyester/cotton, dry cleaned two times, before dry cleaned 3.41", "result": 2.23}, {"measurement": "whiteness index", "setting": "[2]; soil test cloth of polyester/cotton, dry cleaned two times, before dry cleaned 37.82", "result": 44.96}, {"measurement": "ΔE", "setting": "[2]; [9]", "result": 5.67}, {"measurement": "ΔL", "setting": "[2]; [9]", "result": 5.26}, {"measurement": "Δa", "setting": "[2]; [9]", "result": "−0.14"}, {"measurement": "Δb", "setting": "[2]; [9]", "result": "−0.14"}, {"measurement": "Δc", "setting": "[2]; [9]", "result": 0.15}, {"measurement": "Δh", "setting": "[2]; [9]", "result": "−0.13"}, {"measurement": "whiteness index", "setting": "[2]; soil test cloth of polyester, dry cleaned five times, before dry cleaned 45.11", "result": 55.02}, {"measurement": "yellowness index", "setting": "[2]; soil test cloth of polyester, dry cleaned five times, before dry cleaned −10.35", "result": "−10.21"}, {"measurement": "ΔE", "setting": "[2]; [10]", "result": 6.68}, {"measurement": "ΔL", "setting": "[2]; [10]", "result": 6.68}, {"measurement": "Δa", "setting": "[2]; [10]", "result": "−0.19"}, {"measurement": "Δb", "setting": "[2]; [10]", "result": 0.07}, {"measurement": "Δc", "setting": "[2]; [10]", "result": "−0.06"}, {"measurement": "Δh", "setting": "[2]; [10]", "result": "−0.19"}, {"measurement": "whiteness index", "setting": "[2]; soil test cloth of polyester, dry cleaned one time, before dry cleaned 45.11", "result": 56.16}, {"measurement": "yellowness index", "setting": "[2]; soil test cloth of polyester, dry cleaned one time, before dry cleaned −10.35", "result": "−9.61"}, {"measurement": "ΔE", "setting": "[2]; [11]", "result": 7.61}, {"measurement": "ΔL", "setting": "[2]; [11]", "result": 7.6}, {"measurement": "Δa", "setting": "[2]; [11]", "result": "−0.17"}, {"measurement": "Δb", "setting": "[2]; [11]", "result": "−0.2"}, {"measurement": "Δc", "setting": "[2]; [11]", "result": 0.21}, {"measurement": "Δh", "setting": "[2]; [11]", "result": "−0.16"}, {"measurement": "whiteness index", "setting": "[2]; soil test cloth of polyester, dry cleaned two times, before dry cleaned 45.11", "result": 58.86}, {"measurement": "yellowness index", "setting": "[2]; soil test cloth of polyester, dry cleaned two times, before dry cleaned −10.35", "result": "−10.22"}, {"measurement": "ΔE", "setting": "[2]; [12]", "result": 1.9}, {"measurement": "ΔL", "setting": "[2]; [12]", "result": "−1.66"}, {"measurement": "Δa", "setting": "[2]; [12]", "result": "−0.1"}, {"measurement": "Δb", "setting": "[2]; [12]", "result": "−0.93"}, {"measurement": "Δc", "setting": "[2]; [12]", "result": "−0.9"}, {"measurement": "Δh", "setting": "[2]; [12]", "result": 0.27}, {"measurement": "yellowness index", "setting": "[2]; soil test cloth of wool, dry cleaned five times, before dry cleaned 11.22", "result": 9}, {"measurement": "whiteness index", "setting": "[2]; soil test cloth of wool, dry cleaned five times, before dry cleaned 22.57", "result": 23.54}, {"measurement": "ΔE", "setting": "[2]; [13]", "result": 2.1}, {"measurement": "ΔL", "setting": "[2]; [13]", "result": "−2.1"}, {"measurement": "Δa", "setting": "[2]; [13]", "result": "−0.04"}, {"measurement": "Δb", "setting": "[2]; [13]", "result": "−0.03"}, {"measurement": "Δc", "setting": "[2]; [13]", "result": "−0.03"}, {"measurement": "Δh", "setting": "[2]; [13]", "result": 0.05}, {"measurement": "yellowness index", "setting": "[2]; soil test cloth of wool, dry cleaned one time, before dry cleaned 11.22", "result": 11.37}, {"measurement": "whiteness index", "setting": "[2]; soil test cloth of wool, dry cleaned one time, before dry cleaned 22.57", "result": 20.62}, {"measurement": "ΔE", "setting": "[2]; [14]", "result": 2.09}, {"measurement": "ΔL", "setting": "[2]; [14]", "result": "−1.91"}, {"measurement": "Δa", "setting": "[2]; [14]", "result": "−0.09"}, {"measurement": "Δb", "setting": "[2]; [14]", "result": "−0.83"}, {"measurement": "Δc", "setting": "[2]; [14]", "result": "−0.8"}, {"measurement": "Δh", "setting": "[2]; [14]", "result": 0.23}, {"measurement": "yellowness index", "setting": "[2]; soil test cloth of wool, dry cleaned two times, before dry cleaned 11.22", "result": 9.3}, {"measurement": "whiteness index", "setting": "[2]; soil test cloth of wool, dry cleaned two times, before dry cleaned 22.57", "result": 22.99}, {"measurement": "increase of whiteness index", "setting": "[2]; soil test cloth of wool, times not stated", "result": "does not change appreciably"}]}]}
